According to patent publication US8258151B2, “3-aminoimidazo [1,2-A] pyridine derivatives as SGLT inhibitors” (Merck Patent GmbH, priority 2006, dated 2012):

Columns and labels:
SGLT1 = target: T1, SGLT1 (Homo sapiens, UniProt P13866); assay: SGLT1 activity measurement: 14C-AMG uptake in BHK cells transfected with SGLT1; format: cell-based; conditions: AMG 50 μM, 37° C., 90 min
T1 construct: expressed in transfected cells
T1 sequence (P13866 1-664): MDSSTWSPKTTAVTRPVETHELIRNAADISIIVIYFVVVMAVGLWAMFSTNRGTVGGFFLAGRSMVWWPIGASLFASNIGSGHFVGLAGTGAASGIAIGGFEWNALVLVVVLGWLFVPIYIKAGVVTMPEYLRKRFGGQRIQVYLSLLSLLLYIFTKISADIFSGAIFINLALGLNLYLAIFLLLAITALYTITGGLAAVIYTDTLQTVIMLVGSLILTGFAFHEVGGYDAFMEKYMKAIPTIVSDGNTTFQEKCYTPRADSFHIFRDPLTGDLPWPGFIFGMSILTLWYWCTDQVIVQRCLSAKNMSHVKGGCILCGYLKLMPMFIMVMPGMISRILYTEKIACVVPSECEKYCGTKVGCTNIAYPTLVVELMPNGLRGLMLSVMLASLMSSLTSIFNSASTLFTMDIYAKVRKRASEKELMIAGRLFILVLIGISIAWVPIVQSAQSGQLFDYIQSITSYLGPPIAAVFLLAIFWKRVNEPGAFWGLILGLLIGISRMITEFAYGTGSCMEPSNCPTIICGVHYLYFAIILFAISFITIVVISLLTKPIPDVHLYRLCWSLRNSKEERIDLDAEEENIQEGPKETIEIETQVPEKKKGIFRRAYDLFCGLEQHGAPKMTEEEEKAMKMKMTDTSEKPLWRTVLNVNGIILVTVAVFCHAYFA
Excerpt: (§1) The compounds can be tested on their SGLT inhibition properties by means of BHK cells expressing SGLT1 and SGLT2. The production of the cells and the testing can be carried out as described below.
To construct the SGLT1 expression vector (KL225), the SLC5A1 gene (homologous to NM_000343) was amplified from a cDNA library using standard PCR technology and cloned over NheI/XhoI sites into pcDNA3.1 expression vector (Invitrogen) containing neomycin as a selection marker. In this vector, transcription uses the enhancer/promoter of human cytomegalovirus.
The final vector KL225 together with an additional vector containing a dihydrofolate reductase gene as a selection marker was introduced into cells. Transfection into BHK21 cells (ATCC CCL-10), cultivated in DMEM medium (GIBCO/BRL), supplemented with 10% foetal calf serum (FCS) and 20 mM glutamine, was carried out using calcium phosphate transfections according to Graham, F. L. and van der Ebb, A. J. (1973), Virology 52: 456 with 5-20 μg of uncut plasmids for 10^7 cells. Stable transfectants were selected in medium containing 1 mg/ml of G418 (GIBCO/BRL) and 20-5000 nM methotrexate as final concentration, where only cells which expressed the neomycin gene and overexpressed the dhfr gene were able to grow. After growth for 2-3 weeks, the cells were cloned (0.5 cells/well) and the clones were investigated for SGLT expression in the radioactive uptake assay. […]
(§2) A 96-well cell-based assay was developed and adapted to HTS requirements:
(§3) BHK cells (transfected with SGLT1 or SGLT2) were seeded into 96-well microtitre plates (Cultureplates, Perkin Elmer). After at least 24 h, medium was removed and the cell layer was washed with assay buffer (140 mM NaCl, 2 mM KCl, 1 mM CaCl2, 1 mM MgCl2, 10 mM HEPES, 5 mM Tris, adjusted with 1 M KOH to pH 7.4). After addition of 40 μl of assay buffer, 50 μl of AMG (50 μM for SGLT1 and 2 mM for SGLT2) in the presence or absence of compounds, the cells were incubated in a total volume of 100 μl at 37° C. for 90 min. Supernatant was removed by suction and discarded. The cells were washed and lysed by addition of 50 μl water. After 10 minutes at room temperature 200 μl Microscint 40 (Perkin Elmer) were added. The radioactivity was counted in a Topcount microplate scintillation counter (Perkin Elmer). The non-specific uptake was determined in sodium-free assay buffer (266 mM sucrose, 2 mM KCl, 1 mM CaCl2, 1 mM MgCl2, 10 mM HEPES, 5 mM Tris, adjusted with 1 M KOH to pH 7.4).

SGLT2 = target: T2, SGLT2 (Homo sapiens, UniProt P31639); assay: SGLT2 activity measurement: 14C-AMG uptake in BHK cells transfected with SGLT2; format: cell-based; conditions: AMG 2 mM, 37° C., 90 min
T2 construct: expressed in transfected cells
T2 sequence (P31639 1-672): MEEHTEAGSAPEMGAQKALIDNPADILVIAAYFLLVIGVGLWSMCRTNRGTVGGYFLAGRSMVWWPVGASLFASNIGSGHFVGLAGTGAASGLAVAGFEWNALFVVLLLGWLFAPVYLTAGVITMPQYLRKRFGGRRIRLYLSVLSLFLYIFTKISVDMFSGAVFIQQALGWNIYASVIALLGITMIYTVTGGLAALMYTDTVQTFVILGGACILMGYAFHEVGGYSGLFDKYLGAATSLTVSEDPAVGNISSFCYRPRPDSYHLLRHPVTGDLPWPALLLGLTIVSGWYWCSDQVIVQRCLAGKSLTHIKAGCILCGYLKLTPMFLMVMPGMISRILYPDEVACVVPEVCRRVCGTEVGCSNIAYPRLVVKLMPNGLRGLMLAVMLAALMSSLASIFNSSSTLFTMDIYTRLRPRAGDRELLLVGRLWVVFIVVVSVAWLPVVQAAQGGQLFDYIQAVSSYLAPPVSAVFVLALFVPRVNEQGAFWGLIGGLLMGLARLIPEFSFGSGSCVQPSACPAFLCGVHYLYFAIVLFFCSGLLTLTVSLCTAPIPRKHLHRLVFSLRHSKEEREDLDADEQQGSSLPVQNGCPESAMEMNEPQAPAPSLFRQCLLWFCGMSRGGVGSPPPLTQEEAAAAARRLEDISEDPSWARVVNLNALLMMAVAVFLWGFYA
Excerpt: as §1
To construct the SGLT2 expression vector (KL224), the SLC5A2 gene (homologous to NM_003041) was amplified from a cDNA library using standard PCR technology and cloned over NheI/XhoI sites into PCI-neo expression vector (Promega) containing neomycin as a selection marker. In this vector, transcription used the enhancer/promoter of human cytomegalovirus and the SV40 polyadenylation signal.
The final vector KL224 together with an additional vector containing a dihydrofolate reductase gene as a selection marker was introduced into cells. Transfection into BHK21 cells (ATCC CCL-10), cultivated in DMEM medium (GIBCO/BRL), supplemented with 10% foetal calf serum (FCS) and 20 mM glutamine, was carried out using calcium phosphate transfections according to Graham, F. L. and van der Ebb, A. J. (1973), Virology 52: 456 with 5-20 μg of uncut plasmids for 10^7 cells. Stable transfectants were selected in medium containing 1 mg/ml of G418 (GIBCO/BRL) and 20-5000 nM methotrexate as final concentration, where only cells which expressed the neomycin gene and overexpressed the dhfr gene were able to grow. After growth for 2-3 weeks, the cells were cloned (0.5 cells/well) and the clones were investigated for SGLT expression in the radioactive uptake assay.
Principally, uptake of ^14C-α-methyl-D-glucopyranoside (AMG) in, for example, Xenopus oocytes injected with the corresponding cRNA has been described (for example Wen-Sen Lee et al. (1994), J. Biol. Chem. 269, 12032-12039; Guofeng You et al. (1995), J. Biol. Chem. 270, 29365-29371).
as §2, §3

IC50 (SGLT1)	IC50 (SGLT2)	SMILES
> 10 µM	0.01 to 1 µM	Cc1cccc(C)c1Nc1c(-c2c(C)cc(OCC(N)=O)cc2OCC(N)=O)nc2ccc(F)cn12 [Compound A178, 2-[2-(Aminocarbonylmethoxy)-4-(amino-carbonylmethoxy)-6-methylphenyl]-3-(2,6-dimethylphenylamino)-6-fluoroimidazo[1,2-a]-pyridine]
> 10 µM	0.01 to 1 µM	Cc1cccc(C)c1Nc1c(-c2ccc([N+](=O)[O-])cc2OCC(N)=O)nc2ccccn12 [Compound A179, 2-[2-(Aminocarbonylmethoxy)-4-nitrophenyl]-3-(2,6-dimethylphenylamino)imidazo[1,2-a]pyridine]
1 to 10 µM	0.01 to 1 µM	Cc1cccc(C)c1Nc1c(-c2c(OCC(N)=O)ccc3ccccc23)nc2ccc(F)cn12 [Compound A180, 2-{1-[3-(2,6-Dimethylphenylamino)-6-fluoro-imidazo[1,2-a]pyridin-2-yl]naphthalen-2-yloxy}-acetamide]
> 10 µM	0.01 to 1 µM	CCc1cc(OC2CCCCO2)cc(OCC(N)=O)c1-c1nc2ccc(F)cn2c1Nc1c(C)cccc1C (stereo not drawn) [Compound A182, 2-[2-(Aminocarbonylmethoxy)-4-(tetra-hydropyran-2-yloxy)-6-ethylphenyl]-3-(2,6-dimethylphenylamino)-6-fluoroimidazo[1,2-a]-pyridine]
> 10 µM	1 to 10 µM	COC(=O)Cc1ccc(OCC(N)=O)c(-c2nc3ccccn3c2Nc2c(C)cccc2C)c1 [Compound A183, 2-[2-(Aminocarbonylmethoxy)-5-(methoxycarbonylmethyl)phenyl]-3-(2,6-dimethylphenylamino)imidazo[1,2-a]pyridine]
1 to 10 µM	0.01 to 1 µM	CCc1cc(OC)cc(OCC(N)=O)c1-c1nc2ccc(F)cn2c1Nc1c(C)cccc1C [Compound A185, 2-[2-(Aminocarbonylmethoxy)-4-methoxy-6-ethylphenyl]-3-(2,6-dimethylphenylamino)-6-fluoroimidazo[1,2-a]pyridine]
> 10 µM	0.01 to 1 µM	CCc1cc(OCCOC)cc(OCC(N)=O)c1-c1nc2ccc(F)cn2c1Nc1c(C)cccc1C [Compound A187, 2-[2-(Aminocarbonylmethoxy)-4-(2-methoxy-ethoxy)-6-ethylphenyl]-3-(2,6-dimethylphenyl-amino)-6-fluoroimidazo[1,2-a]pyridine]
> 10 µM	1 to 10 µM	COc1ccc(-c2nc3ccc(F)cn3c2Nc2c(C)cccc2C)c(OCC(N)=O)c1OC [Compound A188, 2-[2-(Aminocarbonylmethoxy)-3,4-dimethoxy-phenyl]-3-(2,6-dimethylphenylamino)-6-fluoro-imidazo[1,2-a]pyridine]
> 10 µM	1 to 10 µM	CCc1cc(OC)cc(OCC(N)=O)c1-c1nc2c(O)cccn2c1Nc1c(C)cccc1C [Compound A194, 2-[2-(Aminocarbonylmethoxy)-4-methoxy-6-ethylphenyl]-3-(2,6-dimethylphenylamino)-8-hydroxyimidazo[1,2-a]pyridine]

Second part, the compound before the results:

SMILES	IC50 (SGLT1)	IC50 (SGLT2)
Cc1cccc(C)c1Nc1c(-c2c(OCC(N)=O)ccc3ccccc23)nc2ccccn12 [Compound A181, 2-{1-[3-(2,6-Dimethylphenylamino)imidazo-[1,2-a]pyridin-2-yl]naphthalen-2-yloxy}acetamide]	1 to 10 µM	0.01 to 1 µM
COCCOc1cc(C)c(-c2nc3ccc(F)cn3c2Nc2c(C)cccc2C)c(OCC(N)=O)c1 [Compound A184, 2-[2-(Aminocarbonylmethoxy)-4-(2-methoxy-ethoxy)-6-methylphenyl]-3-(2,6-dimethylphenyl-amino)-6-fluoroimidazo[1,2-a]pyridine]	> 10 µM	0.01 to 1 µM
Cc1cccc(C)c1Nc1c(-c2c(C)cc(OCCO)cc2OCC(N)=O)nc2ccc(F)cn12 [Compound A186, 2-[2-(Aminocarbonylmethoxy)-4-(2-hydroxy-ethoxy)-6-methylphenyl]-3-(2,6-dimethylphenyl-amino)-6-fluoroimidazo[1,2-a]pyridine]	> 10 µM	0.01 to 1 µM
Cc1cccc(C)c1Nc1c(-c2c(C)cc(OC3COC(=O)O3)cc2OCC(N)=O)nc2ccc(F)cn12 (stereo not drawn) [Compound A190, 2-[2-(Aminocarbonylmethoxy)-4-(2-oxo-1,3-dioxolan-4-yloxy)-6-methylphenyl]-3-(2,6-dimethylphenylamino)-6-fluoroimidazo[1,2-a]-pyridine]	> 10 µM	0.01 to 1 µM
COc1cc(C)c(-c2nc3c(N)cccn3c2Nc2c(C)cccc2C)c(OCC(N)=O)c1 [Compound A191, 2-[2-(Aminocarbonylmethoxy)-4-methoxy-6-methylphenyl]-3-(2,6-dimethylphenylamino)-8-aminoimidazo[1,2-a]pyridine]	> 10 µM	0.01 to 1 µM
CCc1cc(OC)cc(OCC(N)=O)c1-c1nc2c(N)cccn2c1Nc1c(C)cccc1C [Compound A192, 2-[2-(Aminocarbonylmethoxy)-4-methoxy-6-ethylphenyl]-3-(2,6-dimethylphenylamino)-8-aminoimidazo[1,2-a]pyridine]	> 10 µM	0.01 to 1 µM
